Laboratory results taken from article PMC12621043, “Un-LOK-ing a New Approach for Conformational Selective Targeting of STK10 (LOK)” (ACS Medicinal Chemistry Letters, 2025).

Assays:
[1] = target: SLK (Homo sapiens, UniProt Q9H2G2); experiment: PhosphoSens in vitro activity assay; type: biochemical; settings: ATP 150 μM
[2] = target: T1, BMP2KA (Homo sapiens, UniProt Q9NSY1); experiment: DSF Tm panel; type: binding; settings: 10 μM compound
T1 construct: purchased in-house DSF kinase panel (SGC-style construct names; the trailing letter is the construct ID)

[3] = target: T2, PAK4A (Homo sapiens, UniProt O96013); experiment: DSF Tm panel; type: binding; settings: 10 μM compound
T2 construct: purchased in-house DSF kinase panel (SGC-style construct names; the trailing letter is the construct ID)

[4] = target: T3, K2A2 (CSNK2A2A) (Homo sapiens, UniProt P19784); experiment: DSF Tm panel; type: binding; settings: 10 μM compound
T3 construct: purchased in-house DSF kinase panel (SGC-style construct names; the trailing letter is the construct ID)

[5] = target: T4, STK17AA (Homo sapiens, UniProt Q9UEE5); experiment: DSF Tm panel; type: binding; settings: 10 μM compound
T4 construct: purchased in-house DSF kinase panel (SGC-style construct names; the trailing letter is the construct ID)
T4 sequence (Q9UEE5 61-321): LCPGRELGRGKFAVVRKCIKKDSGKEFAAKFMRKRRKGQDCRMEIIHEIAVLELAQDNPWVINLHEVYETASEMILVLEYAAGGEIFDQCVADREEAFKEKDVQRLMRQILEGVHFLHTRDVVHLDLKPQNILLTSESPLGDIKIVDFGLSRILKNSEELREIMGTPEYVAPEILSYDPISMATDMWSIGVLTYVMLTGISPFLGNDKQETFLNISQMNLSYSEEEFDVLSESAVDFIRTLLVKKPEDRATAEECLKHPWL

[6] = target: T5, EPHA5A (Homo sapiens, UniProt P54756); experiment: DSF Tm panel; type: binding; settings: 10 μM compound
T5 construct: purchased in-house DSF kinase panel (SGC-style construct names; the trailing letter is the construct ID)
T5 sequence (P54756 653-939): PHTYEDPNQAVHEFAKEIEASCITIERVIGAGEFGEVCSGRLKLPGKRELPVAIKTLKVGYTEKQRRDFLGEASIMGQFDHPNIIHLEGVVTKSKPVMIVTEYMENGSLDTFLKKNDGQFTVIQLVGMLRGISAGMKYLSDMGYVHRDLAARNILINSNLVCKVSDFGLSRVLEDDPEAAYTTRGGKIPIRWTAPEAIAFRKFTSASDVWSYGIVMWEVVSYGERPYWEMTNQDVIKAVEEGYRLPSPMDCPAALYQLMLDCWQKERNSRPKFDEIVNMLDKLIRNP

[7] = target: T6, GAKA (Homo sapiens, UniProt O14976); experiment: DSF Tm panel; type: binding; settings: 10 μM compound
T6 construct: purchased in-house DSF kinase panel (SGC-style construct names; the trailing letter is the construct ID)
T6 sequence (O14976 14-351): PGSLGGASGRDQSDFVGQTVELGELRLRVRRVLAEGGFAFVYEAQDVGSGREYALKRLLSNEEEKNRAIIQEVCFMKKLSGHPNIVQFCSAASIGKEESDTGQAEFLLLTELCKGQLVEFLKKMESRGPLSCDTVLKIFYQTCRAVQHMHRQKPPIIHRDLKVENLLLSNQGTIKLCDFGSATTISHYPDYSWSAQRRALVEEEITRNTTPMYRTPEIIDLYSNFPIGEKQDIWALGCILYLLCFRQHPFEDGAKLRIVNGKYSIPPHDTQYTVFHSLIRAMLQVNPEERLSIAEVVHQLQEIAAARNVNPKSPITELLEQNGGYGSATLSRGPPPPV

[8] = target: T7, STK6A (Homo sapiens, UniProt O14965); experiment: DSF Tm panel; type: binding; settings: 10 μM compound
T7 construct: purchased in-house DSF kinase panel (SGC-style construct names; the trailing letter is the construct ID)
T7 sequence (O14965 122-403): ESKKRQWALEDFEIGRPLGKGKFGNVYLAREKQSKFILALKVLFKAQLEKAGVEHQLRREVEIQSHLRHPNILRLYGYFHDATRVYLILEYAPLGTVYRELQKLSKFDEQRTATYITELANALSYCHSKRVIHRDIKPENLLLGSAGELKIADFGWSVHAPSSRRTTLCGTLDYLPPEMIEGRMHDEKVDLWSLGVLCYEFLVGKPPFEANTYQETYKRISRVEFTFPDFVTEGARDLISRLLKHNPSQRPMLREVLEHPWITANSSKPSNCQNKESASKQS

[9] = target: T8, MAP2K1A (Homo sapiens, UniProt Q02750); experiment: DSF Tm panel; type: binding; settings: 10 μM compound
T8 construct: purchased in-house DSF kinase panel (SGC-style construct names; the trailing letter is the construct ID)

[10] = target: T9, FGFR1B (Homo sapiens, UniProt P11362); experiment: DSF Tm panel; type: binding; settings: 10 μM compound
T9 construct: purchased in-house DSF kinase panel (SGC-style construct names; the trailing letter is the construct ID)

[11] = target: T10, BMX (BMXA) (Homo sapiens, UniProt P51813); experiment: DSF Tm panel; type: binding; settings: 10 μM compound
T10 construct: purchased in-house DSF kinase panel (SGC-style construct names; the trailing letter is the construct ID)

[12] = target: T11, PLK4A (Homo sapiens, UniProt O00444); experiment: DSF Tm panel; type: binding; settings: 10 μM compound
T11 construct: purchased in-house DSF kinase panel (SGC-style construct names; the trailing letter is the construct ID)
T11 sequence (O00444 2-275): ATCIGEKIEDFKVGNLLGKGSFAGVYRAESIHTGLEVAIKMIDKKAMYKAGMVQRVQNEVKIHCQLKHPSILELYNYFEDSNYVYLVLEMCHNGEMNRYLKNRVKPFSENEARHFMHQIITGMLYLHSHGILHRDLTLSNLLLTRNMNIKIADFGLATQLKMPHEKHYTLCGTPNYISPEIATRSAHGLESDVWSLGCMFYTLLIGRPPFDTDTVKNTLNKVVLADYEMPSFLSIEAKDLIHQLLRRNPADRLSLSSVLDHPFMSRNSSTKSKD

[13] = target: T12, GSK3BB (Homo sapiens, UniProt P49841); experiment: DSF Tm panel; type: binding; settings: 10 μM compound
T12 construct: purchased in-house DSF kinase panel (SGC-style construct names; the trailing letter is the construct ID)

[14] = target: T13, CAMK1DA (Homo sapiens, UniProt Q8IU85); experiment: DSF Tm panel; type: binding; settings: 10 μM compound
T13 construct: purchased in-house DSF kinase panel (SGC-style construct names; the trailing letter is the construct ID)
T13 sequence (Q8IU85 whole entry): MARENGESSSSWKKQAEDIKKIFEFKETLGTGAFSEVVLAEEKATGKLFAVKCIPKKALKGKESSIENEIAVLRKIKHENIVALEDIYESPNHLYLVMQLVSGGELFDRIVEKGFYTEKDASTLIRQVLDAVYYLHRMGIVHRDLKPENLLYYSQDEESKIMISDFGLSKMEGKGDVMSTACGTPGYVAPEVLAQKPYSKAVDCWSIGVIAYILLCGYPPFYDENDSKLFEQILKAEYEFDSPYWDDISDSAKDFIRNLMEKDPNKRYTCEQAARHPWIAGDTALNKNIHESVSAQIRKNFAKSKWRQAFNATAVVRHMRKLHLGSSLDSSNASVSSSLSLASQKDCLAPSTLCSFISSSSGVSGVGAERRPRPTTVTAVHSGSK

T10 sequence (P51813 411-675): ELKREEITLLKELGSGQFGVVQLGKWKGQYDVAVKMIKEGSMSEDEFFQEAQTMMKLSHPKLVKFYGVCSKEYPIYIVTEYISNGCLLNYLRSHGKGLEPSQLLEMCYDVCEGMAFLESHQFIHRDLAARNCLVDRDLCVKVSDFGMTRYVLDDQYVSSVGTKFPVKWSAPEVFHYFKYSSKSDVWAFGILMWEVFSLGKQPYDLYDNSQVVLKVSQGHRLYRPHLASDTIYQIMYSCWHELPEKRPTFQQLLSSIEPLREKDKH
T12 sequence (P49841 35-386): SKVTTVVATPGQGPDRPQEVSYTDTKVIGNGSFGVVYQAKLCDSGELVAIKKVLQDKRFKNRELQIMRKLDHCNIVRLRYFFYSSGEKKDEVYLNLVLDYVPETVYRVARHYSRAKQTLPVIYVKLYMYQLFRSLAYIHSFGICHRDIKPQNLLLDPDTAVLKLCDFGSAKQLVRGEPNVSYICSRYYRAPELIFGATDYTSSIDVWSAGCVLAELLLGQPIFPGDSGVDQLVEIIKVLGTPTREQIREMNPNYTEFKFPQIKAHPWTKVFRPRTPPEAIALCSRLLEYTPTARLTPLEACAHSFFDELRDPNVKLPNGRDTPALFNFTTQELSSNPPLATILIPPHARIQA
T2 sequence (O96013 291-591): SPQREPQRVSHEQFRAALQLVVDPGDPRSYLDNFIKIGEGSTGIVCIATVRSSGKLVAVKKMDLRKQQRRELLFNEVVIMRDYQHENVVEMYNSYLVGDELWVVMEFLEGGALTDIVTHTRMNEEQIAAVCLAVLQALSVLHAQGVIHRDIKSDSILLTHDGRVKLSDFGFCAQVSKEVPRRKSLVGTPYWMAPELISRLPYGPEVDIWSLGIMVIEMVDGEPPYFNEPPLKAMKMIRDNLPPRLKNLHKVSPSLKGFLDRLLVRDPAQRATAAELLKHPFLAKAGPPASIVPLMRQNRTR
T3 sequence (P19784 whole entry): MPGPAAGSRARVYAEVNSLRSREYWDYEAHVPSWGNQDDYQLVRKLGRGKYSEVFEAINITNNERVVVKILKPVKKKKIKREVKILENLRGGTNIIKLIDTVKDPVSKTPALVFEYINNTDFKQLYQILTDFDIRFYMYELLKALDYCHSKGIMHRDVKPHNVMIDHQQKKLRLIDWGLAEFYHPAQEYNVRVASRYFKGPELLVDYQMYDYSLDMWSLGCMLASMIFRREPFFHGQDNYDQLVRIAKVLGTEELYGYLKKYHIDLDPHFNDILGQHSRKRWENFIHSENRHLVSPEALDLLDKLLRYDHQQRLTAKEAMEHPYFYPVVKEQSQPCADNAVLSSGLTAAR
T9 sequence (P11362 456-767): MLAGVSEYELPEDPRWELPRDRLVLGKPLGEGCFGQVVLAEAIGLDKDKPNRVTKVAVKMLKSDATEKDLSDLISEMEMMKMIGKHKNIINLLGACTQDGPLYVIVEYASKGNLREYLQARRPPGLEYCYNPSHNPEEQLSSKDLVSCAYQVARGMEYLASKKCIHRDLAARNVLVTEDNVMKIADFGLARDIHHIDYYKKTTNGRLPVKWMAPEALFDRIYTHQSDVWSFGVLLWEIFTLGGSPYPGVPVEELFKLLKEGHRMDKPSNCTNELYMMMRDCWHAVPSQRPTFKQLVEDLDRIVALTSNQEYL
T1 sequence (Q9NSY1 38-345): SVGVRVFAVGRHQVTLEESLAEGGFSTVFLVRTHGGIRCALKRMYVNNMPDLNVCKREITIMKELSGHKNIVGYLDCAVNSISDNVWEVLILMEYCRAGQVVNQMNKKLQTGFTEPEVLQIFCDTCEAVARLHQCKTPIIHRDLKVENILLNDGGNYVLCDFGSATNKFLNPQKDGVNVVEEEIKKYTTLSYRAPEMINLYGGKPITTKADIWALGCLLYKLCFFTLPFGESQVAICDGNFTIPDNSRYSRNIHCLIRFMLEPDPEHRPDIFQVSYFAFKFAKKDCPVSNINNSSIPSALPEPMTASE
T8 sequence (Q02750 68-361): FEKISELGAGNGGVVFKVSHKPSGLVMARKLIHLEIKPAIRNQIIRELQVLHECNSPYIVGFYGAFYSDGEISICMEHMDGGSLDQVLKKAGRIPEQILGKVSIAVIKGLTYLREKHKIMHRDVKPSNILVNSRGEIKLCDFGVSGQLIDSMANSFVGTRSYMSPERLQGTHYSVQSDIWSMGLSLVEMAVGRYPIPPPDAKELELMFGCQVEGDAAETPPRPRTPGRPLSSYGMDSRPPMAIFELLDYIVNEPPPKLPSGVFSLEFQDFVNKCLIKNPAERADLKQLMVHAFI

Structure (SMILES)	IC50 [1] [µM]	ΔTm at 10 µM [2] [°C]	ΔTm at 10 µM [3] [°C]	ΔTm at 10 µM [4] [°C]	ΔTm at 10 µM [5] [°C]	ΔTm at 10 µM [6] [°C]	ΔTm at 10 µM [7] [°C]	ΔTm at 10 µM [8] [°C]	ΔTm at 10 µM [9] [°C]	ΔTm at 10 µM [10] [°C]	ΔTm at 10 µM [11] [°C]	ΔTm at 10 µM [12] [°C]	ΔTm at 10 µM [13] [°C]	ΔTm at 10 µM [14] [°C]
O=C(NCc1ccccc1)Nc1ccc2cc1OCCOCCNc1ccn3ncc-2c3n1 [compound 16]	9.36 ± 1.77	12.2	-0.2	2.3	4.9	0.1	6.1	7.5	-0.1	2.4	1.7	4.1	1.1	0
O=C(NCc1ccccc1Cl)Nc1ccc2cc1OCCOCCNc1ccn3ncc-2c3n1 [compound 17]	6.83 ± 1.58	9.2	0	4	2.3	0.1	4.8	6.7	-0.2	0.6	1.2	3.9	1	-0.3
O=C(NCc1cccc(Cl)c1)Nc1ccc2cc1OCCOCCNc1ccn3ncc-2c3n1 [compound 18]	5.93 ± 0.76	8.7	0.1	3.1	5.1	0.4	4.1	7.3	0.2	2	1.4	3.2	0	0.4
O=C(NCc1ccc(Cl)cc1)Nc1ccc2cc1OCCOCCNc1ccn3ncc-2c3n1 [compound 19]	7.16 ± 1.12	9.8	0.1	3.6	2	0.3	4.4	7.1	0.1	1.5	1.4	2.5	0.6	0.6
O=C(NCc1ccc(Cl)cc1Cl)Nc1ccc2cc1OCCOCCNc1ccn3ncc-2c3n1 [compound 20]	7.44 ± 1.64	6.7	0.8	3	1.6	0.7	2.4	7.4	0.8	0.9	1.6	2.8	0.6	1
O=C(NCc1ccc(Cl)cc1F)Nc1ccc2cc1OCCOCCNc1ccn3ncc-2c3n1 [compound 21]	8.88 ± 1.41	7.5	0.9	4.2	2	0.7	3.9	6.9	1.2	1.1	1.4	2.6	0.2	0.8
Cc1cc(Cl)ccc1CNC(=O)Nc1ccc2cc1OCCOCCNc1ccn3ncc-2c3n1 [compound 23]	3.43 ± 1.12	5.9	1.2	2.8	0.7	1	2.8	5.6	0.6	1.1	1.8	2.8	0.4	2.1
O=C(NCc1ccc(C(F)(F)F)cc1)Nc1ccc2cc1OCCOCCNc1ccn3ncc-2c3n1 [compound 28]		7.7	2.4	0.5	2.4	1.9	5.1	7.6	1	1.5	2.7	3.3	0.2	2.1
COc1ccc(CNC(=O)Nc2ccc3cc2OCCOCCNc2ccn4ncc-3c4n2)cc1 [compound 31]		12	1.7	2.5	5.1	1.2	6.2	8	0.6	1.5	1.4	4.9	1	1.2
CN1CCN(C(=O)Nc2ccc3cc2OCCOCCNc2ccn4ncc-3c4n2)CC1 [compound 35]		11.8	-0.3	3.6	1.7	-0.5	3.8	2.4	-0.2	0.7	0.3	3	1.7	-1.2
